Reference: publication PMC12809571, “Contribution to the Chemotherapy of Human Trypanosomiasis: Design, Synthesis, and Biological Evaluation of Dimeric 2‑Nitroimidazoles against Trypanosoma cruzi Amastigotes and Bloodstream Trypanosoma brucei” (ACS Omega, 2025)
Like-named read-outs stand apart in the source and are kept apart here.

Columns and labels:
[1] = Cytotoxicity against LLC-MK2 cells (MTT); format: cell-based; details: rhesus monkey
Protocol: (§1) Mammalian lineage cells were used to assess the cytotoxicity of the tested compounds. LLC-MK2, HEK-293, and RAW-264 cells (ATCC) were cultured in Dulbecco’s Modified Eagle’s Medium (DMEM) supplemented with 5% fetal bovine serum (FBS) and incubated at 37 °C in 5% CO2, with passages every 4–5 days. Cells were detached from the monolayer using a solution containing 0.25% w/v trypsin and 0.04% EDTA.
In a flat 96-well plate, a suspension of 1 × 10^4 LLC-MK2 cells (ATCC) in DMEM supplemented with 2% FBS was added. Cells were incubated at 37 °C (5% CO2) for 20 h, then washed with phosphate-buffered saline (PBS) to remove nonadherent cells. Cells were treated with serial dilutions (200–2 μM) of compounds in triplicate, prediluted in DMEM with 2% FBS. Untreated, vehicle (0.2% v/v DMSO), and blank (no cells added) controls were included. After 120 h of incubation, the supernatant was removed, the cell monolayer washed with PBS, and the culture medium refreshed. Then, 20 μL of a 3.0 mM MTT salt solution was added, followed by two additional hours of incubation. The supernatant was removed again, and the MTT formazan crystals were dissolved by adding 120 μL of DMSO per well. After 1.5 h of dark incubation at 37 °C to dissolve the crystals, the absorbance was measured at 570 nm using a plate reader.

[2] = test system: amastigotes of T. cruzi (Tulahuen C2C4 LacZ strain); test: Trypanocidal activity against T. cruzi amastigotes (CPRG, infected LLC-MK2); format: cell-based, Trypanosoma cruzi; details: intracellular amastigotes in LLC-MK2, 120 h; for IC50: Trypanosoma cruzi, TULAHUEN, read-out: Activity against Amastigotes of T. cruzi (Tulahuen C2C4lacZ) IC50
Protocol: The antiparasitic activity assays used amastigotes of the Tulahuen C2C4-LacZ strain of T. cruzi. Amastigotes and trypomastigotes were cultured by successive reinfections in LLC-MK2 cell monolayers in DMEM supplemented with 5% FBS and incubated at 37 °C with 5% CO2. Trypomastigotes were collected from the culture supernatant between days 5 and 10 after infection and separated from nonadhered cells by differential centrifugation.
In a flat 96-well plate, a suspension of 1 × 10^4 LLC-MK2 cells (ATCC) in DMEM supplemented with 2% FBS was added. Cells were incubated at 37 °C with 5% CO2 for 4 h to promote adhesion, then washed with PBS to remove nonadherent cells. A suspension containing 1.5 × 10^5 T. cruzi trypomastigote forms of the Tulahuen C2C4 LacZ strain was added to the cells, followed by incubation at 37 °C with 5% CO2 for 20 h to establish infection. Noninternalized parasites were removed with three successive PBS washes, then treatment with serial dilutions (50–0.08 μM) of compounds in triplicate, prediluted in DMEM with 2% FBS. Controls included untreated cells, vehicle (0.2% v/v DMSO), and blank (no parasite added). Benznidazole, in serial dilutions, served as a positive control. After 5 days (120 h), 30 μL of a 0.5 mM CPRG solution in PBS was added along with 0.9% v/v Igepal CA-630. After a 2h incubation, absorbance was measured at 570 nm using a plate reader.

[3] = test system: amastigotes of T. cruzi (Tulahuen C2C4 LacZ strain); test: as above; format: cell-based, Trypanosoma cruzi
Chagas disease = details: chronic phase of Chagas disease; cited from earlier work
RAW-264.7 cells = test: Cytotoxicity against RAW-264.7 cells (MTT); format: cell-based
Protocol: as §1
In a 96-well transparent plate, a suspension of 1 × 10^4 RAW-264.7 cells (ATCC) in Roswell Park Memorial Institute (RPMI) medium supplemented with 10% FBS was added. Cells were incubated at 37 °C (5% CO2) for 20 h, then washed with PBS to remove nonadherent cells. Cells were treated with serial dilutions of the hybrids in triplicate (125–0.2 μM), prediluted in RPMI supplemented with 10% FBS. Controls included untreated samples, vehicle (0.2% v/v DMSO), and blank wells (no cells). […] Then, 20 μL of 3.0 mM MTT saline was added, followed by an additional 1.5 h of incubation. The supernatant was removed again, and the MTT formazan crystals were dissolved by adding 120 μL of DMSO per well. After incubating for 1.5 h in the dark at 37 °C to dissolve the crystals, absorbance was measured at 570 nm using a plate reader.

HEK-293 cells = test: Cytotoxicity against HEK-293 cells (MTT); format: cell-based
Protocol: as §1
In a 96-well transparent plate, a suspension of 1 × 10^4 HEK-293 cells (ATCC) in DMEM medium supplemented with 10% FBS was added. Cells were incubated at 37 °C (5% CO2) for 20 h and then washed with PBS to remove nonadherent cells. The cells were treated with serial dilutions of the hybrids in triplicate (125–0.2 μM), prediluted in DMEM containing 10% FBS. The experiment included untreated controls, vehicle (0.2% v/v DMSO), and a blank (no added cells). […] Then, 20 μL of 3.0 mM MTT saline was added, followed by an additional 1.5 h of incubation. The supernatant was removed, and the MTT formazan crystals were dissolved by adding 120 μL of DMSO per well. After incubating for 1.5 h in the dark at 37 °C, the absorbance was measured at 570 nm using a plate reader.

[4] = test system: bloodstream trypomastigotes of T. b. brucei; test: Trypanocidal activity against T. brucei brucei bloodstream (MTS); format: cell-based, Trypanosoma brucei brucei
Protocol: In a transparent 96-well plate, the parasites were incubated for 48 h at a concentration of 5 × 10^4 parasites per well, for 24 h, a concentration of 10 × 10^5 parasites per well was used in Hirumi’s Modified Iscove’s (HMI-9) medium supplemented with 10% FBS and a final 100 μL/well volume. Treatment was carried out using serial dilutions of the compounds (100–0.02 μM) and fexinidazole as the reference drug, both in triplicate. Triplicates of untreated parasites (live control), parasites treated with DMSO 0.2% v/v (vehicle), and wells without parasites (blank control) served as experimental controls. After incubation, 20 μL of MTS solution (5% PMS) was added, and the sample was incubated for another 2 h. Once the plate was visibly stained–due to the soluble formazan salt produced by the action of viable parasites from the reduction of MTS–the absorbance was measured at 490 nm using a plate reader.

[5] = Mus musculus, RAW264.7, 48 h, read-out: RAW-264.7 48 h IC50
[6] = Homo sapiens, HEK293, 48 h, read-out: HEK-293 48 h IC50
[7] = Trypanosoma brucei, 48 h, read-out: T. b. brucei 48 h IC50
[8] = Mus musculus, RAW264.7, 48 h; read-out: RAW-264.7 48 h IC50
[9] = Homo sapiens, HEK293, 48 h; read-out: HEK-293 48 h IC50
[10] = Trypanosoma brucei, 48 h; read-out: T. b. brucei 48 h IC50

| Compound | IC50 at 120 h [1] [µM] | IC50 [2] [µM] | SI (LLC-MK2) = (IC50 LLC-MK2)/(IC50 T. cruzi) [3] | IC50 at 120 h ([1]; LLC-MK2 cells) [µM] | cure rate (Chagas disease) | IC50 (RAW-264.7 cells; [5]) [µM] | IC50 (HEK-293 cells; [6]) [µM] | SI (HEK-293) = (IC50 HEK-293)/(IC50 T. brucei brucei) [4] | SI (RAW-264.7) = (IC50 RAW-264.7)/(IC50 T. brucei brucei) [4] | IC50 [4, 7] [µM] | IC50 (RAW-264.7 cells; [8]) [µM] | IC50 (HEK-293 cells; [9]) [µM] | IC50 [4, 10] [µM] | Activity against Amastigotes of T. cruzi (Tulahuen C2C4lacZ) IC50 [2] |
| --- | --- | --- | --- | --- | --- | --- | --- | --- | --- | --- | --- | --- | --- | --- |
| O=[N+]([O-])c1ncc[nH]1 [Azomycin (3), 2-nitro-1H-imidazole, reference compound] | > 500 | 5.74 ± 1.89 | >87.10 | – | – | – | – | – | – | – | – | – | – | – |
| O=C(Cn1ccnc1[N+](=O)[O-])NCc1ccccc1 [Benznidazole, benznidazole, reference compound] | – | 1.5 ± 0.33 | >133.33 | > 200 | less than 20% | – | – | – | – | – | – | – | – | – |
| O=[N+]([O-])c1nccn1CCn1ccnc1[N+](=O)[O-] [Compound 4, 1,2-Bis(2-nitro-1H-imidazol-1-yl)ethane] | > 200 | 9.13 ± 0.93 | >21.90 | – | – | > 125 | > 125 | >5.83 | >5.83 | 21.4 ± 1.15 | – | – | – | – |
| O=[N+]([O-])c1nccn1CCCn1ccnc1[N+](=O)[O-] [Compound 5, 1,3-Bis(2-nitro-1H-imidazol-1-yl)propane] | > 200 | 3.2 ± 0.58 | >62.50 | – | – | > 125 | > 125 | – | – | 16.4 ± 2.65 | – | – | – | – |
| O=[N+]([O-])c1nccn1CCCCn1ccnc1[N+](=O)[O-] [Compound 6, 1,4-Bis(2-nitro-1H-imidazol-1-yl)butane] | > 200 | 2.66 ± 0.78 | >75.18 | – | – | – | – | >5.02 | >5.02 | – | > 125 | > 125 | 24.9 ± 7.89 | – |
| O=[N+]([O-])c1nccn1CCCCCn1ccnc1[N+](=O)[O-] [Compound 7, 1,5-Bis(2-nitro-1H-imidazol-1-yl)pentane] | > 200 | 1.38 ± 0.24 | >144.9 | – | – | – | – | >12.42 | >12.42 | – | > 125 | > 125 | 10.1 ± 2.47 | – |
| O=[N+]([O-])c1nccn1CCCCCCn1ccnc1[N+](=O)[O-] [Compound 8, 1,6-Bis(2-nitro-1H-imidazol-1-yl)hexane] | > 200 | 0.59 ± 0.01 | >338.98 | – | – | – | – | 16.27 | >23.27 | – | > 125 | 87.4 ± 1.2 | 5.37 ± 3.15 | submicromolar range |
| O=[N+]([O-])c1nccn1CCCCCCCCn1ccnc1[N+](=O)[O-] [Compound 9, 1,8-Bis(2-nitro-1H-imidazol-1-yl)octane] | > 100 | 1.19 ± 0.31 | >84.03 | – | – | – | – | 2.79 | 8.98 | – | 71.7 ± 3.67 | 22.3 ± 1.08 | 7.98 ± 3.12 | – |
| O=[N+]([O-])c1nccn1CCCCCCCCCCn1ccnc1[N+](=O)[O-] [Compound 10, 1,10-Bis(2-nitro-1H-imidazol-1-yl)decane] | > 100 | 0.48 ± 0.11 | >208.33 | – | – | – | – | 1.67 | 4.67 | – | 98.4 ± 9.39 | 35.1 ± 5.31 | 21 ± 1.9 | submicromolar range |
| O=[N+]([O-])c1nccn1CCCCCCCCCCCCn1ccnc1[N+](=O)[O-] [Compound 11, 1,12-Bis(2-nitro-1H-imidazol-1-yl)dodecane] | 52.4 ± 4.13 | 0.61 ± 0.13 | 85.88 | – | – | – | – | 57.01 | >69.83 | – | > 125 | 102 ± 8.54 | 1.79 ± 0.63 | submicromolar range |
| CSc1ccc(OCc2ncc([N+](=O)[O-])n2C)cc1 [Fexinidazole, fexinidazole, reference compound] | – | – | – | – | – | – | – | – | – | – | – | – | 1.2 ± 0.51 | – |
| CC1CS(=O)(=O)CCN1/N=C/c1ccc([N+](=O)[O-])o1 (centres unmarked) [nifurtimox] | – | – | – | – | less than 20% | – | – | – | – | – | – | – | – | – |
